# Results published in ChEMBL document CHEMBL3885881, “DrugMatrix”.
# Species on record: Rattus norvegicus
# Assay: DrugMatrix - Regimen: Daily Repeat
# Type: toxicity, organism-based, Sprague-Dawley
# Set-up: regimen Daily Repeat, gender Male, age 6-8 weeks
# Conditions: in vivo, po, route oral GAVAGE, vehicle .5 % CMC; for ABSOLUTE BASOPHIL / ABSOLUTE EOSINOPHIL / ABSOLUTE LYMPHOCYTE / ABSOLUTE MONOCYTE / ABSOLUTE SEGMENTED NEUTROPHIL / BASOPHIL / EOSINOPHIL / ERYTHROCYTE COUNT / HEMATOCRIT / HEMOGLOBIN / LEUKOCYTE COUNT / LYMPHOCYTE / MEAN CORPUSCULAR HEMOGLOBIN / MEAN CORPUSCULAR HEMOGLOBIN CONCENTRATION / MEAN CORPUSCULAR VOLUME / MONOCYTE / NEUTROPHIL / NUCLEATED RED BLOOD CELLS / PLATELET COUNT: tissue Blood; for ALANINE AMINOTRANSFERASE / ALBUMIN / ALKALINE PHOSPHATASE / ASPARTATE AMINOTRANSFERASE / BLOOD UREA NITROGEN / CARBON DIOXIDE / CHLORIDE / CHOLESTEROL / CREATINE PHOSPHOKINASE / CREATININE / GLUCOSE / LACTATE DEHYDROGENASE / LIPASE / PHOSPHORUS / POTASSIUM / SODIUM / TOTAL BILIRUBIN / TOTAL PROTEIN / URIC ACID: tissue Plasma
# [1] = 22 mg/kg, 72 h, dose level High, time 3 day
# [2] = 22 mg/kg, 120 h, dose level High, time 5 day
# [3] = […], 72 h, dose 2.2 mg/Kg, dose level Low, time 3 day
# [4] = […], 120 h, dose 2.2 mg/Kg, dose level Low, time 5 day
smiles,measurement,setting,value
Cc1cc(C(C#N)c2ccc(Cl)cc2)c(Cl)cc1NC(=O)c1cc(I)cc(I)c1O (configuration not stated) [CLOSANTEL],ABSOLUTE BASOPHIL,[1],0 CELLS/uL
same,ABSOLUTE EOSINOPHIL,[1],101.33 CELLS/uL
same,ABSOLUTE LYMPHOCYTE,[1],16742.67 CELLS/uL
same,ABSOLUTE MONOCYTE,[1],54 CELLS/uL
same,ABSOLUTE SEGMENTED NEUTROPHIL,[1],802 CELLS/uL
same,BASOPHIL,[1],0%
same,EOSINOPHIL,[1],0.67%
same,ERYTHROCYTE COUNT,[1],4.94 x10E6/uL
same,HEMATOCRIT,[1],31.43%
same,HEMOGLOBIN,[1],12.7 G/DL
same,LEUKOCYTE COUNT,[1],17.7 x10E3/uL
same,LYMPHOCYTE,[1],94.67%
same,MEAN CORPUSCULAR HEMOGLOBIN,[1],25.77 pg
same,MEAN CORPUSCULAR HEMOGLOBIN CONCENTRATION,[1],40.4 G/DL
same,MEAN CORPUSCULAR VOLUME,[1],63.77 fL
same,MONOCYTE,[1],0.33%
same,NEUTROPHIL,[1],4.33%
same,NUCLEATED RED BLOOD CELLS,[1],0 /100WBC
same,PLATELET COUNT,[1],1110.67 x10E3/uL
same,ALANINE AMINOTRANSFERASE,[1],49.67 u/L
same,ALBUMIN,[1],4.27 G/DL
same,ALKALINE PHOSPHATASE,[1],612.33 u/L
same,ASPARTATE AMINOTRANSFERASE,[1],122.67 u/L
same,BLOOD UREA NITROGEN,[1],16.33 mg/dL
same,CARBON DIOXIDE,[1],27.67 mmol/L
same,CHLORIDE,[1],103.67 MEQ/L
same,CHOLESTEROL,[1],73 mg/dL
same,CREATINE PHOSPHOKINASE,[1],369 u/L
same,CREATININE,[1],0.19 mg/dL
same,GLUCOSE,[1],171.33 mg/dL
same,LACTATE DEHYDROGENASE,[1],163.67 u/L
same,LIPASE,[1],9 u/L
same,PHOSPHORUS,[1],12.43 mg/dL
same,POTASSIUM,[1],6.8 MEQ/L
same,SODIUM,[1],145.83 MEQ/L
same,TOTAL BILIRUBIN,[1],0.2 mg/dL
same,TOTAL PROTEIN,[1],5.73 G/DL
same,URIC ACID,[1],2.13 mg/dL
same,ABSOLUTE BASOPHIL,[2],0 CELLS/uL
same,ABSOLUTE EOSINOPHIL,[2],0 CELLS/uL
same,ABSOLUTE LYMPHOCYTE,[2],18393.33 CELLS/uL
same,ABSOLUTE MONOCYTE,[2],203.33 CELLS/uL
same,ABSOLUTE SEGMENTED NEUTROPHIL,[2],2403.33 CELLS/uL
same,BASOPHIL,[2],0%
same,EOSINOPHIL,[2],0%
same,ERYTHROCYTE COUNT,[2],5.7 x10E6/uL
same,HEMATOCRIT,[2],36.13%
same,HEMOGLOBIN,[2],14.47 G/DL
same,LEUKOCYTE COUNT,[2],21 x10E3/uL
same,LYMPHOCYTE,[2],87.33%
same,MEAN CORPUSCULAR HEMOGLOBIN,[2],25.4 pg
same,MEAN CORPUSCULAR HEMOGLOBIN CONCENTRATION,[2],40.03 G/DL
same,MEAN CORPUSCULAR VOLUME,[2],63.4 fL
same,MONOCYTE,[2],1%
same,NEUTROPHIL,[2],11.67%
same,NUCLEATED RED BLOOD CELLS,[2],0.33 /100WBC
same,PLATELET COUNT,[2],1280.33 x10E3/uL
same,ALANINE AMINOTRANSFERASE,[2],76 u/L
same,ALBUMIN,[2],4.63 G/DL
same,ALKALINE PHOSPHATASE,[2],586.33 u/L
same,ASPARTATE AMINOTRANSFERASE,[2],169.33 u/L
same,BLOOD UREA NITROGEN,[2],25 mg/dL
same,CARBON DIOXIDE,[2],32 mmol/L
same,CHLORIDE,[2],101.67 MEQ/L
same,CHOLESTEROL,[2],84 mg/dL
same,CREATINE PHOSPHOKINASE,[2],365.33 u/L
same,CREATININE,[2],0.32 mg/dL
same,GLUCOSE,[2],141.67 mg/dL
same,LACTATE DEHYDROGENASE,[2],335.67 u/L
same,LIPASE,[2],11.67 u/L
same,PHOSPHORUS,[2],11.47 mg/dL
same,POTASSIUM,[2],7.16 MEQ/L
same,SODIUM,[2],143.5 MEQ/L
same,TOTAL BILIRUBIN,[2],0.2 mg/dL
same,TOTAL PROTEIN,[2],6 G/DL
same,URIC ACID,[2],1.9 mg/dL
same,ABSOLUTE BASOPHIL,[3],0 CELLS/uL
same,ABSOLUTE EOSINOPHIL,[3],27.33 CELLS/uL
same,ABSOLUTE LYMPHOCYTE,[3],7010.67 CELLS/uL
same,ABSOLUTE MONOCYTE,[3],50 CELLS/uL
same,ABSOLUTE SEGMENTED NEUTROPHIL,[3],645.33 CELLS/uL
same,BASOPHIL,[3],0%
same,EOSINOPHIL,[3],0.33%
same,ERYTHROCYTE COUNT,[3],5.2 x10E6/uL
same,HEMATOCRIT,[3],33.97%
same,HEMOGLOBIN,[3],13.53 G/DL
same,LEUKOCYTE COUNT,[3],7.73 x10E3/uL
same,LYMPHOCYTE,[3],90.33%
same,MEAN CORPUSCULAR HEMOGLOBIN,[3],26.1 pg
same,MEAN CORPUSCULAR HEMOGLOBIN CONCENTRATION,[3],39.83 G/DL
same,MEAN CORPUSCULAR VOLUME,[3],65.4 fL
same,MONOCYTE,[3],0.67%
same,NEUTROPHIL,[3],8.67%
same,NUCLEATED RED BLOOD CELLS,[3],0 /100WBC
same,PLATELET COUNT,[3],1123.67 x10E3/uL
same,ALANINE AMINOTRANSFERASE,[3],51 u/L
same,ALBUMIN,[3],4.37 G/DL
same,ALKALINE PHOSPHATASE,[3],453.33 u/L
same,ASPARTATE AMINOTRANSFERASE,[3],101.67 u/L
same,BLOOD UREA NITROGEN,[3],17.33 mg/dL
same,CARBON DIOXIDE,[3],35.33 mmol/L
same,CHLORIDE,[3],98.67 MEQ/L
same,CHOLESTEROL,[3],78.67 mg/dL
same,CREATINE PHOSPHOKINASE,[3],529.33 u/L
same,CREATININE,[3],0.26 mg/dL
same,GLUCOSE,[3],127 mg/dL
same,LACTATE DEHYDROGENASE,[3],156.67 u/L
same,LIPASE,[3],9.67 u/L
same,PHOSPHORUS,[3],11.27 mg/dL
same,POTASSIUM,[3],6.78 MEQ/L
same,SODIUM,[3],144.6 MEQ/L
same,TOTAL BILIRUBIN,[3],0.17 mg/dL
same,TOTAL PROTEIN,[3],6.27 G/DL
same,URIC ACID,[3],0.93 mg/dL
same,ABSOLUTE BASOPHIL,[4],0 CELLS/uL
same,ABSOLUTE EOSINOPHIL,[4],0 CELLS/uL
same,ABSOLUTE LYMPHOCYTE,[4],9886.33 CELLS/uL
same,ABSOLUTE MONOCYTE,[4],68.67 CELLS/uL
same,ABSOLUTE SEGMENTED NEUTROPHIL,[4],945 CELLS/uL
same,BASOPHIL,[4],0%
same,EOSINOPHIL,[4],0%
same,ERYTHROCYTE COUNT,[4],5.61 x10E6/uL
same,HEMATOCRIT,[4],35.17%
same,HEMOGLOBIN,[4],14 G/DL
same,LEUKOCYTE COUNT,[4],10.9 x10E3/uL
same,LYMPHOCYTE,[4],90.33%
same,MEAN CORPUSCULAR HEMOGLOBIN,[4],24.93 pg
same,MEAN CORPUSCULAR HEMOGLOBIN CONCENTRATION,[4],39.83 G/DL
same,MEAN CORPUSCULAR VOLUME,[4],62.63 fL
same,MONOCYTE,[4],0.67%
same,NEUTROPHIL,[4],9%
same,NUCLEATED RED BLOOD CELLS,[4],0 /100WBC
same,PLATELET COUNT,[4],1205.67 x10E3/uL
same,ALANINE AMINOTRANSFERASE,[4],49 u/L
same,ALBUMIN,[4],4.43 G/DL
same,ALKALINE PHOSPHATASE,[4],427.33 u/L
same,ASPARTATE AMINOTRANSFERASE,[4],75 u/L
same,BLOOD UREA NITROGEN,[4],18 mg/dL
same,CARBON DIOXIDE,[4],29.67 mmol/L
same,CHLORIDE,[4],103 MEQ/L
same,CHOLESTEROL,[4],72.33 mg/dL
same,CREATINE PHOSPHOKINASE,[4],164.33 u/L
same,CREATININE,[4],0.18 mg/dL
same,GLUCOSE,[4],146.67 mg/dL
same,LACTATE DEHYDROGENASE,[4],113.67 u/L
same,LIPASE,[4],8.33 u/L
same,PHOSPHORUS,[4],13.67 mg/dL
same,POTASSIUM,[4],7.15 MEQ/L
same,SODIUM,[4],146.83 MEQ/L
same,TOTAL BILIRUBIN,[4],0.23 mg/dL
same,TOTAL PROTEIN,[4],6.6 G/DL
same,URIC ACID,[4],1.7 mg/dL
